# Data taken from patent publication US12037354B2, “Cyclic pantetheine derivatives and uses thereof” (VectivBio Comet AG, priority 2018, dated 2024).
# Columns and labels:
# [1] = tested on: Peripheral blood mononuclear cells co-cultured with B-cells (BT system); experiment: BioMAP BT system, Example 829; format: cell-based, human
# Procedure: (§1) The BioMAP platform (BioMAP® Diversity PLUS Panel from Eurofins) is an in vitro phenotypic profiling technology that screened the compounds of the present disclosure (hereafter indicated as test agents) in human primary cell-based systems modelling complex tissue and disease states. The BioMAP assays were performed using the Eurofin's BioMAP Technology Platform as (see references 1 to 13 in the example 824 section) to model different diseases on primary cell-based model systems. These systems consisted of either single primary cell types or co-culture cells. Adherent cell types were cultured or co-cultured in 96 or 384-well plates until confluence followed by the addition of compounds prepared in DMSO at a final concentration of ≤0.1%. In each cell-based system, primary cells from heathy donors (2-6 donors) were pooled and treated with compounds at 1 and 10 μM dose 1 h prior to stimulation and remain in culture as indicated in
# (§2) Example 825, Example 826, Example 827, Example 828, Example 829, Example 830, Example 831, Example 832, Example 833, Example 834, Example 835, Example 836 and Example 837. For on the BioMAP® Diversity PLUS® Panel, please see the following references, which are incorporate herein.
# Following the general procedure as described in Example 824, Peripheral blood mononuclear cells were co-cultured with B-cells (BT system) were treated with either α-IgM and TCR ligands for 72 h in the presence or absence of the compounds to model asthma, allergy, oncology and autoimmunity. Biomarkers read out were; B-cell proliferation, PBMC cytotoxicity, secreted IgG, sIL-17A, sIL-17F, sIL-2, sIL-6 and s-TNFα.
# HepG2 cells = experiment: Glucose uptake Glo Assay, Example 821; format: cell-based
# Procedure: The effect of compounds from the present disclosure on glucose uptake was determined in HepG2 cells (ATCC, HB-8065) using the glucose uptake Glo Assay Kit (Promega, 11343 according to manufacturer instructions. HepG2 cells were cultured in complete DMEM-glucose media (Gibco) supplemented with 10% FBS (37° C. incubator with 5% CO2) and seeded in 96-well plates at 30,000 cells/well. After removing the complete media, 100 μL/well of serum-free, high-glucose DMEM media were added to the wells and incubated overnight (37° C. incubator with 5% CO2). Media was then replaced with 100 μl/well DPBS containing 0.6°/o BSA and starved for 1 hour. Next, DPBS was removed and 45 μl/well of insulin (100 nM) or compounds (10 μM-50 μM) were added to the wells and incubated for 10 minutes (37° C. incubator with 5% CO2). Insulin and compounds were prepared in DPBS with 0.6% BSA with a final DMSO concentration of 0.1%. Next, 5 μl of 2DG (10 mM) in DPBS were added per well and allowed to incubate for 20 minutes followed by addition of 25 μl stop buffer. 37.5 μl of the mixture were then transferred to a new plate and 12.5 μl of Neutralization buffer added to the wells. After, 50 μl of 2DG6P detection Reagent were added and incubated for 0.5-1 hour at room temperature. Luminescence was measured with 0.3-1 second integration on a luminometer.
# [2] = tested on: Venular Endothelial cells (HUVEC) (4H system); experiment: BioMAP 4H system, Example 826; format: cell-based, human
# Procedure: as §1, §2
# Following the general procedure as described in Example 824, Venular Endothelial cells (HUVEC) (4H system) were treated with IL-4 and histamine for 24 h to model Th2 driven allergy and autoimmunity in the presence or absence of compounds. Biomarkers read out were; MCP-1, Eotaxin-3. VCAM-1, P-selectin, uPAR (CD87), SRB and VEGFRII.
# [3] = tested on: Lung fibroblast (MyoF system); experiment: BioMAP MyoF system, Example 835; format: cell-based, human; conditions: 10 uM
# Procedure: as §1, with “indicated in […]” for “indicated in”
# Following the general procedure as described in Example 824, Lung fibroblast (MyoF system) were treated with TNFα and TGFβ for 48 h in the presence or absence of the compounds to model fibrosis, chronic inflammation, wound healing, matrix remodelling. Biomarker read out were; α-SM Actin, bFGF, VCAM-1, Collagen-I, Collagen-III, […], IL-8, decorin, MMP-1, PAI-1, TIMP-1, SRB
# [4] = tested on: Bronchial epithelial cells (BE3C system); experiment: BioMAP BE3C system, Example 831; format: cell-based, human
# Procedure: as §1, §2
# Following the general procedure as described in Example 824, Bronchial epithelial cells (BE3C system) were treated with IL-1f3, TNFα and IFNγ for 24 h in the presence or absence of the compounds to model lung inflammation and chronic obstructive pulmonary disease (COPD). Biomarkers read out were; ICAM-1, uPAR, IP-10, I-TAC, IL-8, MIG, EGFR, HLA-DR, IL-1α, Keratin 8/18, MMP-1, MMP-9, PAI-1, SRB, tPA, uPA.
# [5] = tested on: Bronchial epithelial cells co-cultured with dermal fibroblast (BF4T system); experiment: BioMAP BF4T system, Example 830; format: cell-based, human; conditions: for % increase in Eotaxin-3 / % increase in VCAM-1: 10 uM
# Procedure: as §1, §2
# Following the general procedure as described in Example 824, Bronchial epithelial cells were co-cultured with dermal fibroblast (BF4T system) and were treated with TNFα and IL-4 for 24 h in the presence or absence of the compounds to model asthma, allergy, fibrosis, lung inflammation. Biomarkers read out were; MCP-1, Eotaxin-3, VCAM-1, ICAM-1, CD90, IL-8, IL-1α, keratin 8/18, MMP-1, MMP-3, MMP-9, PAI-1, SRB, tPA, uPA.
# [6] = Homo sapiens, 20 min, read-out: % increase in Glucose Uptake
Compound,"% decrease in sTNFα ([1]; BT system, 1 uM) [%]","% increase in B-cell Proliferation ([1]; BT system, 10 uM) [%]","% increase in sIL-6 ([1]; BT system, 10 uM) [%]",% increase in B-cell Proliferation ([1]; concentration tested 10 uM) [%],activation at 50 µM (HepG2 cells; [6]) [%],% increase in Glucose Uptake (HepG2 cells; concentration tested 50 uM) [%],"% decrease in E-Selectin ([2]; 4H system, 1 uM) [%]","% decrease in Eotaxin-3 ([2]; 4H system, 1 uM) [%]","% decrease in VEGFRII ([2]; 4H system, 1 uM) [%]",% decrease in E-Selectin ([2]; concentration tested 1 uM) [%],% decrease in Eotaxin-3 ([2]; concentration tested 1 uM) [%],% decrease in VEGFRII ([2]; concentration tested 1 uM) [%],% decrease in uPA [3] [%],"% decrease in sTNFα ([1]; BT system, 10 uM) [%]",% decrease in MMP-9 ([4]; 1 uM) [%],% increase in Eotaxin-3 [5] [%],% increase in VCAM-1 [5] [%],"% decrease in MCP-1 ([2]; 4H system, 10 uM) [%]",% decrease in MCP-1 ([2]; concentration tested 10 uM) [%],also measured
C/C=C/C(=O)SCCNC(=O)CCNC(=O)[C@@H]1OP(=O)(O)OCC1(C)C [Compound 36],≥10,≥20,≥10,≥20,≥ 30,≥30,≥20,≥10,≥20,≥20,≥10,≥20,≥10,,,,,,,"% decrease in MCP-1 ([2]; 4H system, 1 uM): ≥10%; % decrease in MCP-1 ([2]; concentration tested 1 uM): ≥10%"
CC(=O)CC(=O)SCCNC(=O)CCNC(=O)[C@@H]1OP(=O)(O)OCC1(C)C [Compound 42],,,,,,,≥10,≥10,≥10,≥10,≥10,≥10,,≥20,≥10,≥10,≥10,,,"% decrease in B-cell proliferation ([1]; BT system, 10 uM): ≥10%; % decrease in sIL-17 ([1]; BT system, 10 uM): ≥20%; % decrease in B-cell proliferation ([1]; concentration tested 10 uM): ≥10%; % decrease in sIL-17 ([1]; concentration tested 10 uM): ≥20%; activation at 10 µM (HepG2 cells; Homo sapiens, 20 min, 10 uM, read-out: % increase in Glucose Uptake): ≥ 30%; % increase in Glucose Uptake (HepG2 cells; concentration tested 10 uM): ≥30%"
CCOP1(=O)OCC(C)(C)[C@H](C(=O)NCCC(=O)NCCSC(=O)CCC(=O)O)O1 (some centres unmarked) [Compound 61],,≥10,≥10,≥10,≥ 10,≥10,,,,,,,,,≥10,≥10,,≥10,≥10,"% decrease in E-Selectin ([2]; 4H system, 10 uM): ≥10%; % decrease in E-Selectin ([2]; concentration tested 10 uM): ≥10%"
COC(=O)CCC(=O)SCCNC(=O)CCNC(=O)[C@@H]1OC(=O)OCC1(C)C [Compound 451],≥20,,,,≥ 20,≥20,≥10,≥10,≥10,≥10,≥10,≥10,,,≥10,≥10,≥10,≥10,≥10,"% increase in B-cell Proliferation ([1]; BT system, 1 uM): ≥10%; % increase in B-cell Proliferation ([1]; concentration tested 1 uM): ≥10%; % decrease in tPA ([4]; 10 uM): ≥10%"
COC(=O)CCC(=O)SCCNC(=O)CCNC(=O)[C@@H]1OC(C)(CC(=O)OC)OCC1(C)C (some centres unmarked) [Compound 633],,≥20,≥20,≥20,,,≥20,≥10,≥10,≥20,≥10,≥10,≥10,≥10,,≥10,,≥10,≥10,"% increase in sIL-2 ([1]; BT system, 10 uM): ≥20%; % increase in IL-8 ([4]; 1 uM): ≥10%; % decrease in MMP-9 ([4]; 10 uM): ≥10%; % decrease in MMP-9 ([5]; 1 uM): ≥10%"
